One compound from US20250236616A1, “IMMUNOMODULATING AZALIDES” (Zoetis Services LLC, priority 2021, published 2025) can be followed below.

One assay has as its system P. multocida. As to the kind of experiment: MIC, P. multocida strains. In kind it is cell-based. To be noted: Pasteurella multocida. An excerpt: (§1) Primary screening of the compounds of the invention included the evaluation of antibacterial activity of analogs through determination of microbial inhibition concentration (MIC) as per CLSI guidelines. The screening panel included the relevant BRD pathogens: 1) M. haemolytica (e.g., 12726, 46571 and 49023, all AHDRCC; and 33396 (ATCC)); and 2) P. multocida (e.g., 34135 and 46572 (both AHDRCC) and 43137 (ATCC)). In some instances, H. somni (A700025K) pathogens were also included in the screening panel. The AHDRCC strains originated from the Zoetis BRD/SRD surveillance program and refer to the Animal Health Development and Research Culture Collection. In addition, the screen assessed S. aureus (29213 ATCC) as a representative Gram-positive isolate, E.faecalis (19433 ATCC) as a commensal gram-positive gastrointestinal bacterium and E. coli (100, 3110 and 25922 (ATCC)) for the evaluation of efflux potential. The screening panel BRD pathogens were assessed in determining antibacterial activity of the Formula (1) compounds.
(§2) All relevant BRD pathogens were initially screened at a top concentration of 64 μg/mL of a Formula (1) compound in an eleven-point dilution series. […] If an Example was purified further, the MICs moved […] essentially two dilutions across all strains tested in the screening panel.
(§3) In-Vitro MIC Model Compounds were analyzed for antibacterial activity against a panel of animal health specific gram-positive and gram-negative clinical strains by diluting compounds in DMSO to an appropriate stock concentration to determine the Minimal Inhibitory Concentration (MIC) via a semi-automated broth micro-dilution method (CLSI reference method) with QC strains and anti-microbial agent(s). Specifically, bacteria were grown overnight on TSA w/5% sheep blood agar plates and diluted in saline buffer to a McFarland Standard 0.5, then further diluted in cation-ion adjusted Mueller Hinton Broth to a final concentration of approximately 5×10^5 CFU/mL. 100 μL of inoculated media was added to 96-well plate(s) with 3 μL of serially diluted compound in each row. Depending on strain (see CLSI reference method), bacteria were incubated 18-22 hours at 35-37° C. in ambient air, with 5% CO2 or anaerobically (up to 48 hours).

The next assay concerns P. multocida 46572. As to the kind of experiment: In vivo mouse lung infection challenge model (murine efficacy), survival. Further details: species or system CD-1 female mice. To be noted: P. multocida 46572 intranasal challenge; 20 mg/kg subcutaneous; harmonized relative to vehicle (−) and M9 (+) controls.
The subject of a further assay is E. coli. As to the kind of experiment: MIC, E. coli. In kind it is cell-based. To be noted: Escherichia coli.
From the text: as §1, §2, §3

The subject of a further assay is IL-6. As to the kind of experiment: Whole bovine blood assay, LPS-induced IL-6. In kind it is cell-based. The note with it: Bos taurus, fresh whole bovine blood, LPS stimulant; top drug concentration 250 μM.
Another assay has as its system S. aureus. Briefly: MIC, S. aureus. The note with it: Staphylococcus aureus; S. aureus 29213. In kind it is cell-based.
From the text: as §1, §2, §3

For another assay, the system named is M. haemolytica. Briefly: MIC, M. haemolytica strains. In kind it is cell-based. The note with it: Mannheimia haemolytica.
From the text: as §1, §2, §3

For orientation: MIC means the lowest concentration that inhibits growth of the organism. One may read the IC50 as the concentration that gives 50% inhibition. A higher IC50 goes with weaker potency.

SMILES strings stand for the structures.

Regarding `CC[C@H]1OC(=O)[C@H](C)[C@@H](O[C@H]2C[C@@](C)(OC)[C@](O)(CN3CCCCC3)[C@H](C)O2)[C@H](C)[C@@H](O[C@@H]2O[C@H](C)C[C@H](N(C)S(=O)(=O)Nc3ccc(C(F)(F)F)cc3)[C@H]2O)[C@](C)(O)C[C@@H](C)CN[C@H](C)[C@@H](O)[C@]1(C)O` [Example C-11, (2R,3S,4R,5R,8R,10R,11R,12S, 13S, 14R)-2-ethyl-3,4, 10-trihydroxy-13-[(2R,4R,5S,6S)-5-hydroxy-4-methoxy-4,6-dimethyl-5-(piperidin-1-ylmethyl)oxan-2-yl]oxy-11-[(2S,3R,4S,6R)-3-hydroxy-6-methyl-4-[methyl-[[4-(trifluoromethyl)phenyl]sulfamoyl]amino]oxan-2-yl]oxy-3,5,8, 10, 12, 14-hexamethyl-15-oxo-1-oxa-6-azacyclopentadecane], the MIC against P. multocida (P. multocida 43137) is more than 64 µg/mL; in the assay on P. multocida (P. multocida 46572, murine efficacy challenge strain), more than 64 µg/mL; against E. coli (E. coli 25922), more than 64 µg/mL; against E. coli (E. coli W3110), more than 64 µg/mL; in the assay with S. aureus, more than 64 µg/mL; in the assay with M. haemolytica (M. haemolytica 12726), more than 64 µg/mL. The minimum inhibitory concentration (MIC) in the assay with M. haemolytica (M. haemolytica 33396) is more than 64 µg/mL; against M. haemolytica (M. haemolytica 46571, bovine efficacy challenge strain), more than 64 µg/mL. For the same compound, the “% Survival” value in the assay on P. multocida 46572 stood at 56%. In addition, in the assay on IL-6, the 50% inhibitory concentration (IC50) worked out at 13 µM.
